Measured values reported in PubChem BioAssay (NCI).
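The compound was tested at five concentrations on cells cultured in 96-well plates, with a 48-hour exposure period. The concentration for full growth arrest is given as TGI.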

Assays:
Assay in all cases: NCI anticancer screen, dose series, 48 h
[1] = test system: UO-31 renal
[2] = test system: ACHN renal
[3] = test system: SN12C renal
[4] = test system: HCT-15 colon
[5] = test system: RPMI-8226 leukemia
[6] = test system: SNB-19 CNS
[7] = test system: UACC-257 melanoma
[8] = test system: TK-10 renal
[9] = test system: EKVX NSCLC
[10] = test system: UACC-62 melanoma
[11] = test system: CAKI-1 renal
[12] = test system: SK-MEL-5 melanoma
[13] = test system: NCI-H226 lung
[14] = test system: A498 renal
[15] = test system: U251 CNS
[16] = test system: K-562 leukemia
[17] = test system: COLO 205 colon
[18] = test system: SW-620 colon
[19] = test system: PC-3 prostate

| SMILES | TGI [1] | TGI [2] | TGI [3] | TGI [4] | TGI [5] | TGI [6] | TGI [7] | TGI [8] | TGI [9] | TGI [10] | TGI [11] | TGI [12] | TGI [13] | TGI [14] | TGI [15] | TGI [16] | TGI [17] | TGI [18] | TGI [19] |
| --- | --- | --- | --- | --- | --- | --- | --- | --- | --- | --- | --- | --- | --- | --- | --- | --- | --- | --- | --- |
| C/C(CC(=O)Nc1ccc(Cl)c(Cl)c1)=N/NC(=O)C[n+]1ccccc1 | > 100 µM | > 100 µM | > 100 µM | > 100 µM | > 100 µM | > 100 µM | > 100 µM | > 100 µM | > 100 µM | > 100 µM | > 100 µM | > 100 µM | > 100 µM | > 100 µM | > 100 µM | > 100 µM | > 100 µM | – | – |
| COC(=O)c1ccc(OCc2ccc3nc(OC)c(OC)nc3c2)cc1 | > 100 µM | > 100 µM | > 100 µM | > 100 µM | > 100 µM | > 100 µM | > 100 µM | > 100 µM | > 100 µM | – | > 100 µM | > 100 µM | > 100 µM | – | > 100 µM | > 100 µM | > 100 µM | > 100 µM | – |
| COc1ccc(N2C(=O)C3c4[nH]c5ccc(OC)cc5c4C4CCC(C(C)(C)C)CC4C3C2=O)cc1 (stereo not drawn) | > 100 µM | > 100 µM | > 100 µM | > 100 µM | > 100 µM | > 100 µM | > 100 µM | > 100 µM | 92.3 µM | > 100 µM | > 100 µM | > 100 µM | > 100 µM | 49.3 µM | 44.8 µM | > 100 µM | > 100 µM | > 100 µM | – |
| O=C(O)/C=C/n1c2ccccc2c(=O)c2ccccc21 | > 100 µM | > 100 µM | > 100 µM | > 100 µM | > 100 µM | > 100 µM | > 100 µM | – | > 100 µM | > 100 µM | > 100 µM | – | > 100 µM | > 100 µM | > 100 µM | > 100 µM | > 100 µM | > 100 µM | – |
| CNC(=O)CN(CC(=O)NC)C(=O)NC | > 100 µM | > 100 µM | – | > 100 µM | > 100 µM | > 100 µM | > 100 µM | > 100 µM | > 100 µM | > 100 µM | > 100 µM | > 100 µM | > 100 µM | > 100 µM | > 100 µM | > 100 µM | > 100 µM | > 100 µM | – |
| CC(=O)c1cccc(NC(=O)/C(=N\NC(C)(C)C)c2c(O)c3ccccc3oc2=O)c1 | > 100 µM | > 100 µM | > 100 µM | > 100 µM | – | > 100 µM | > 100 µM | > 100 µM | > 100 µM | > 100 µM | > 100 µM | > 100 µM | > 100 µM | – | – | – | > 100 µM | > 100 µM | – |
| CC1(C)COC(C23C4C5C2C2C3C4C52I)=N1 (stereo not drawn) | > 100 µM | > 100 µM | > 100 µM | > 100 µM | > 100 µM | > 100 µM | > 100 µM | > 100 µM | > 100 µM | > 100 µM | > 100 µM | > 100 µM | > 100 µM | > 100 µM | > 100 µM | > 100 µM | > 100 µM | > 100 µM | – |
| COC(=O)/C=C/c1ccc2c(c1)CCC2 | > 100 µM | > 100 µM | – | > 100 µM | > 100 µM | > 100 µM | > 100 µM | > 100 µM | > 100 µM | – | > 100 µM | > 100 µM | – | > 100 µM | > 100 µM | > 100 µM | – | > 100 µM | > 100 µM |
| CCCN(CCCCC(NC(C)=O)C(=O)NCc1ccccc1)C(=O)N(C)N=O (stereo not drawn) | > 100 µM | > 100 µM | > 100 µM | > 100 µM | > 100 µM | > 100 µM | > 100 µM | > 100 µM | > 100 µM | > 100 µM | > 100 µM | > 100 µM | > 100 µM | > 100 µM | > 100 µM | > 100 µM | > 100 µM | > 100 µM | – |
| C=CCCC(OCOCCOC)c1cc(C)c(O[Si](C)(C)C(C)(C)C)c(C)c1 (stereo not drawn) | 23.9 µM | 26.7 µM | 32.2 µM | 31.4 µM | 23.4 µM | 20.7 µM | 26.6 µM | 41.2 µM | 63.5 µM | 38.1 µM | – | 24.3 µM | 26.4 µM | 70.6 µM | 27.3 µM | 26.2 µM | 32.9 µM | 33.2 µM | – |
| COc1ccc2c(c1)c(=O)c1ccccc1n2/C=C/C(=O)O | > 100 µM | > 100 µM | > 100 µM | > 100 µM | > 100 µM | > 100 µM | > 100 µM | > 100 µM | > 100 µM | > 100 µM | > 100 µM | > 100 µM | > 100 µM | > 100 µM | > 100 µM | > 100 µM | > 100 µM | > 100 µM | – |
| COc1ccc(N2C(=O)C3c4[nH]c5ccccc5c4C4CCCCCCCCCCC4C3C2=O)cc1 (stereo not drawn) | > 59.8 µM | > 60.3 µM | 19.9 µM | 19.9 µM | 43.2 µM | 40.8 µM | > 100 µM | > 73.2 µM | > 52.8 µM | > 52.6 µM | > 100 µM | > 59.6 µM | 17.7 µM | 25.5 µM | 22.4 µM | > 78.3 µM | > 40.5 µM | 18.7 µM | – |
| COc1cccc2c1CCc1ccccc1CC2=O | > 100 µM | > 100 µM | > 100 µM | > 100 µM | > 100 µM | > 100 µM | > 100 µM | > 100 µM | > 100 µM | > 100 µM | > 100 µM | > 100 µM | > 100 µM | > 100 µM | > 100 µM | > 100 µM | > 100 µM | > 100 µM | – |
| CCN1CCC(O)(c2ccc(C)cc2)C(C(=O)c2ccc(C)cc2)C1 (stereo not drawn) | > 57.5 µM | 32.1 µM | 19.8 µM | 36.5 µM | 41.5 µM | > 100 µM | 36.6 µM | > 61 µM | 36.1 µM | > 60 µM | 31.3 µM | > 57.2 µM | > 100 µM | > 100 µM | > 83.9 µM | > 100 µM | 48.8 µM | 31.8 µM | – |
